Legend:
BI-2493 [1] = compound: T1, C[C@H]1CNCCN1c1nccc(-c2noc3c2CCC[C@@]32CCCc3sc(N)c(C#N)c32)n1 [BI-2493]; conditions: 5 days
Method: (§1)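 PRISM pooled barcoded cancer cell line viability screen (Broad Institute) with BI-2493 at 8 doses in threefold dilutions from 0.00457 to 10 µmol/L, 5-day treatment; curves fitted per cell line. IC50 is undefined (placeholder) for resistant lines. AUC is capped at 1, and sensitivity is reported as 1 − AUC.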

BI-2493 [2] = compound: T1, BI-2493; assay: 1 - AUC of viability dose-response curve (sensitivity) (fraction); higher = more sensitive; conditions: 5 days
Method: as §1

Test System | IC50 of cell viability (BI-2493 [1]) | 1 - AUC of viability dose-response curve (BI-2493 [2])
TT_THYROID | 6.45 µM | 0.0835
TUHR4TKB_KIDNEY | 3.62 µM | 0.123
TYKNU_OVARY | 9.48 µM | 0.0105
U2OS_BONE | > 10 µM | 0.215
U87MG_CENTRAL_NERVOUS_SYSTEM | > 10 µM | 0.111
U118MG_CENTRAL_NERVOUS_SYSTEM | 6.46 µM | 0.0721
U178_CENTRAL_NERVOUS_SYSTEM | 7.8 µM | 0.139
U266B1_HAEMATOPOIETIC_AND_LYMPHOID_TISSUE | 7.47 µM | 0.0732
U343_CENTRAL_NERVOUS_SYSTEM | 6.54 µM | 0.0705
U937_HAEMATOPOIETIC_AND_LYMPHOID_TISSUE | 3.77 µM | 0.17
U2904_HAEMATOPOIETIC_AND_LYMPHOID_TISSUE | 9.63 µM | 0.0108
U2973_HAEMATOPOIETIC_AND_LYMPHOID_TISSUE | 0.921 µM | 0.33
UACC62_SKIN | 9.21 µM | 0.0436
UACC257_SKIN | 7.78 µM | 0.0407
UBLC1_URINARY_TRACT | 4.3 µM | 0.137
UMRC3_KIDNEY | 4.74 µM | 0.106
UMRC7_KIDNEY | 6.09 µM | 0.0724
UMUC1_URINARY_TRACT | 2.29 µM | 0.226
UMUC5_URINARY_TRACT | 7.6 µM | 0.0622
UMUC7_URINARY_TRACT | > 10 µM | 0.14
UMUC10_URINARY_TRACT | 9.49 µM | 0.0119
UMUC11_URINARY_TRACT | 6.87 µM | 0.101
UO31_KIDNEY | 9.54 µM | 0.0602
UPCISCC072_UPPER_AERODIGESTIVE_TRACT | 8.57 µM | 0.0294

Test System | IC50 of cell viability (BI-2493 [1]) | 1 - AUC of viability dose-response curve (BI-2493 [2])
UPCISCC111_UPPER_AERODIGESTIVE_TRACT | 4.12 µM | 0.158
UPCISCC116_UPPER_AERODIGESTIVE_TRACT | 5.74 µM | 0.118
UW228_CENTRAL_NERVOUS_SYSTEM | 4.79 µM | 0.0946
VAESBJ_SOFT_TISSUE | 9.61 µM | 0.00971
VAL_HAEMATOPOIETIC_AND_LYMPHOID_TISSUE | 3.46 µM | 0.136
VMCUB1_URINARY_TRACT | 3.76 µM | 0.15
VMRCRCW_KIDNEY | 5.59 µM | 0.0854
VMRCRCZ_KIDNEY | 6.92 µM | 0.0774
WAOSEL_HAEMATOPOIETIC_AND_LYMPHOID_TISSUE | 9.74 µM | 0.00836
WERIRB1_AUTONOMIC_GANGLIA | 9.33 µM | 0.052
WM88_SKIN | 8.79 µM | 0.0214
WM793_SKIN | 5.47 µM | 0.0739
WM983B_SKIN | 7.98 µM | 0.038
WM2664_SKIN | 9.22 µM | 0.0151
WSUDLCL2_HAEMATOPOIETIC_AND_LYMPHOID_TISSUE | 4.99 µM | 0.156
YAPC_PANCREAS | 2.97 µM | 0.287
YD8_UPPER_AERODIGESTIVE_TRACT | > 10 µM | 0.0906
YD10B_UPPER_AERODIGESTIVE_TRACT | 5.08 µM | 0.0787
YD15_SALIVARY_GLAND | 6.99 µM | 0.0555
YD38_UPPER_AERODIGESTIVE_TRACT | 6.6 µM | 0.088
YH13_CENTRAL_NERVOUS_SYSTEM | > 10 µM | 0.0914
YKG1_CENTRAL_NERVOUS_SYSTEM | 9.17 µM | 0.0786
YSCCC_BILIARY_TRACT | 5.65 µM | 0.104

Reference: the supplement of paper PMC11962398
